Values quoted from earlier work, collected in US20100008923A1, “Organic Compounds” (Novartis AG, priority 2006, published 2010).

How the values were obtained:
[1] = for Potential side effects at upper limits: at upper limit of daily intake
[2] = test system: HDAC; conditions: Kwon et al. (1998)

| Compound | Potential side effects at upper limits [1] | Upper limit of daily intake [1] | HDAC inhibition [2] |
| --- | --- | --- | --- |
| O=C(O)c1cccnc1 [B3, nicotinic acid] | Liver problems | Above 3000 mg | – |
| Cc1ncc(CO)c(CO)c1O [B6, pyridoxine] | – | Above 100 mg | – |
| Nc1nc2ncc(CNc3ccc(C(=O)N[C@@H](CCC(=O)O)C(=O)O)cc3)nc2c(=O)[nH]1 [B9, folic acid] | No known | – | – |
| cyanocobalamin [B12] | No known | – | – |
| depudecin | – | – | inhibit HDAC at micromolar concentrations |
